According to patent publication US20190111016A1, “METHODS OF TREATING MUSCLE AND LIVER DISORDERS” (The Regents of the University of California, priority 2016, published 2019):
Counter-ions that a name gives are not always drawn.

Key:
[1] = test system: healthy human fibroblast cell line AG09429; assay: qPCR of TFAM and mitochondrial complex subunit mRNA in DMF-treated human fibroblasts; format: cell-based; settings: for average induction of all the mitochondrial complexes (subunit mRNA) compared to vehicle / expression of mitochondrial biogenesis marker TFAM compared to vehicle control: 48 hours
Protocol: (§1) The healthy human fibroblast cell line AG09429 (Coriell Institute, Camden, N.J., USA) was maintained at 37° C. in a humidified atmosphere with 5% CO2. DMEM (Corning, Inc., Corning, N.Y., USA) supplemented with 10% fetal bovine serum (JR-Scientific, Woodland, Calif., USA), 1× Penicillin-Streptomycin Solution (Corning, Inc., Corning, N.Y., USA) was used as growth media. Media was changed every two days.
(§2) The human fibroblasts were plated in a 12-well format at 0.1×10^6 cells per well. The cells were incubated with 0.1% DMSO as vehicle control or 3-30 μM of dimethyl fumarate (Sigma-Aldrich, St. Louis, Mo., USA) dissolved in DMSO. Total RNA and DNA were extracted following a 48-hour incubation period.
(§3) Total RNA was extracted from human fibroblast cells and PBMCs from whole blood using RNeasy plus mini kit (Qiagen, Valencia, Calif.) and RIboPure RNA Purification Kit (ThermoFisher Scientific, Waltham, Mass., USA), respectively following manufacturers instruction. RNA quantity and quality was measured by a NanoDrop 2000c Spectrophotometer (Thermo Scientific, Waltham, Mass., USA).
(§4) cDNA was synthesized from mRNA with iScript cDNA Synthesis Kit (Bio-Rad Laboratories, Hercules, Calif., USA) per manufacturer's instruction in a C1000 Touch Thermal Cycler (Bio-Rad Laboratories, Hercules, Calif., USA). A SensiFAST SYBR No-ROX Kit (Bioline, Taunton, Mass., USA) was used to perform qPCR on the synthesized cDNA in a Roche Lightcycler 480 (Roche Diagnostics, Indianapolis, Ind., USA). The second derivative of the amplification curve was used to determine the cycle threshold, and the data were analyzed by a delta delta CT calculation.
To elucidate whether increased mitochondrial proliferation affects the abundance of the ETC mitochondrial complexes, qPCR analysis was performed to quantify the mRNA expression of numerous complex subunits: complex 1 subunits MT-ND2 and MT-ND6, complex 2 subunits SDHA and SDHB, […], and complex 5 subunits ATP5B and MT-ATP6 [Table 1]. […] Taken together, human fibroblast cells increased mitochondrial biogenesis measured by mtDNA copy number, mitochondrial proliferator marker TFAM expression and mitochondrial complex expression.

HCAR2 = assay: DMF treatment of HCAR2 siRNA knockdown human fibroblasts, qPCR; format: cell-based; settings: HCAR2 siRNA 48 hours, then DMF 48 hours
Protocol: (§5) Fibroblast cells were seeded in six-well plates at 0.2×10^6 cells per well and transfected with negative control siRNA (cat. 12935300, Thermo-Fisher, Waltham, Mass., USA), pooled Nrf2 siRNA (cat. HSS107130, HSS181505, HSS181506, Thermo-Fisher, Waltham, Mass., USA) or pooled HCAR2 siRNA (cat. L-006688-02-0005, Dharmacon, Lafayette, Colo., USA) using Lipofectamine RNAiMAX following manufacturer's instruction. After a 48-hour incubation, subsequent drug treatment was conducted with the cells.
as §4, with “A SensiFAST SYBR No-ROX Kit (Bioline, Taunton, Mass., USA) was used to perform qPCR on the synthesized cDNA in a Roche Lightcycler 480 (Roche Diagnostics, Indianapolis, Ind., USA).” left out
(§6) DMF is known to mediate antioxidant cellular defense by Nrf2 activation, and it suppresses inflammatory signaling by binding to and activating HCAR2 (11, 15). To further understand the Nrf2 and HCAR2 dependent effects of DMF on mitochondrial biogenesis, we analyzed changes in mitochondrial proliferation in Nrf2 siRNA knockdown and HCAR2 siRNA knockdown fibroblasts.

C57BL/6 wild-type mice [2] = assay: mtDNA copy number (mt-Nd1/Cftr) by qPCR in tissues of DMF-dosed mice; format: in vivo, mouse; settings: 10 mg/kg DMF i.p. daily, two weeks
Protocol: (§7) C57BL/6 wild-type mice were housed in a vivarium maintained at 22° C.-24° C. and 40%-60% relative humidity with a 12-hour light/12-hour dark cycle. All experimental procedures were approved by the University of California Institutional Animal Care and Use Committee.
(§8) The stock dimethyl fumarate solution was made by dissolving 50 mg/ml of DMF into DMSO. Prior to injection, 0.5 mg/ml of working DMF solution (1:100 dilution) was made by diluting the stock solution into phosphate-buffered saline with 5% Tween-20 and 5% Polyethylene glycol (Sigma-Aldrich, St. Louis, Mo., USA). The mice were injected intraperitoneally every day for 14 days with 10 mg/kg of DMF.
(§9) The mice were euthanized with CO2 followed by cervical dislocation and tissues were immediately removed then flash frozen with liquid nitrogen. Samples were stored in −80° C. until utilized for experiments.
(§10) Total DNA was extracted from human fibroblast and mouse tissues using DNeasy plus mini kit and DNeasy blood & tissue kit (Qiagen, Valencia, Calif., USA), respectively, following manufacturer's instruction. DNA was quantified by a NanoDrop 2000c Spectrophotometer (Thermo Scientific, Waltham, Mass., USA).
as §4
(§11) To understand whether the DMF-dependent mitochondrial biogenesis is only applicable to the human fibroblast cells, we examined the effects of DMF on wild type C57BL/6 mice. The mice were dosed with 10 mg/kg DMF daily, and skeletal muscle, cerebellum, liver, and heart tissues were collected after two weeks of treatment We utilized qPCR to analyze, mtDNA copy number as ratio of mt-Nd1 to Cftr and mitochondrial complex expression, in these tissues.

C57BL/6 wild-type mice [3] = assay: qPCR of mitochondrial complex subunit expression in tissues of DMF-dosed mice; format: in vivo, mouse; settings: 10 mg/kg DMF i.p. daily, two weeks
Protocol: as §7, §8, §9, §4, §11

MS patients [4] = assay: qPCR of mitochondrial complex subunit expression in PBMCs of MS patients before and after DMF treatment; format: in vivo, human
Excerpt: (§12) The local Ethics Committee of the University Federico II of Naples, approved the study. Patients were recruited from the Multiple Sclerosis Center of the Federico II University of Naples. All patients gave written informed consent before any activity linked to the study was started. Healthy controls were recruited at the clinic through students and site personnel. The study included 12 MS patients and 11 healthy individuals. Samples were obtained on the day before and after 3 months of continuous DMF treatment. Whole blood was collected in EDTA containing Leucosep® tubes (Greiner bio-one, Frickenhausen, Germany) and frozen at −80° C. until analysis. PBMCs were isolated from 30 mL of EDTA anticoagulated whole blood for RNA extraction.
as §3, §4
DMF is a FDA approved drug, currently being used to treat adult patients with relapsing form of MS. To confirm whether DMF is contributing to mitochondrial biogenesis when given to human patients, we used qPCR to study mitochondrial DNA copy number and mitochondrial complex subunit expression in peripheral blood lymphocytes isolated from 11 MS patients at baseline and those same patients 3 months after DMF treatment, and 10 controls. We see significant increase in mitochondrial DNA copy number by 71% (p<0.0075, n=11) in MS patients' treated with DMF for 3 months compared to its own baseline [FIG. 4A].

Nrf2 = assay: DMF treatment of Nrf2 siRNA knockdown human fibroblasts, qPCR; format: cell-based; settings: then DMF 48 hours
Protocol: as §5, §4, §6

[5] = test system: healthy human fibroblast cell line AG09429; assay: mtDNA copy number (mtDNA/nDNA, MT-TL1/B2M) by qPCR in DMF-treated human fibroblasts; format: cell-based; settings: 48 hours
Protocol: as §1, §2, §10, §4
Healthy human fibroblast cells were treated with 0.1% DMSO (vehicle), 3 μM, 10 μM or 30 μM DMF for 48 hours. Mitochondrial DNA (mtDNA) copy number was analyzed from total DNA isolates by measuring the ratio of mitochondrial to nuclear DNA (mtDNA/nDNA). Primers used to amplify mitochondrial DNA and nuclear DNA by qPCR were mitochondrially-encoded tRNA leucine 1 (MT-TL1) and Beta 2 microglobulin (B2M) respectively. […]

MS patients [6] = assay: mtDNA copy number (MT-TL1/B2M) by qPCR in PBMCs of MS patients before and after DMF treatment; format: in vivo, human; settings: 3 months DMF treatment
Excerpt: as §12, §4
DMF is a FDA approved drug, currently being used to treat adult patients with relapsing form of MS. […]

human fibroblasts = assay: Oxygen consumption rate in DMF-treated fibroblasts by Seahorse XF Analyzer; format: cell-based; settings: 48 hours
Protocol: Fibroblast cell lines were seeded at a density of 60,000 cells/well in 200 μL of culture medium in a 24-well seahorse tissue culture plate (Seahorse Biosciences, Billerica, Mass., USA). Following a 24-hour incubation, the media was replaced and incubated with 200 μL of 0.1% DMSO or 3 μM, 10 μM and 30 μM dimethyl fumarate in 0.1% DMSO. Prior to reading the oxygen consumption, the medium was changed to unbuffered DMEM without phenol red (Corning, Inc., Corning, N.Y., USA), 10% fetal bovine serum (JR-Scientific, Woodland, Calif., USA), […] glutamax, […] sodium pyruvate, 25 mM glucose (Invitrogen, Waltham, Mass., USA) and was adjusted to pH 7.4. Cells were pre-equilibrated for 20 min; oxygen consumption rate (OCR) and proton production rate (PPR) were recorded with the Seahorse XF-24 after sequential addition of oligomycin (1 ug/ml), FCCP (10 μM) and a combination of antimycin A (1 μM) and rotenone (1 μM) (Sigma-Aldrich, St. Louis, Mo., USA). Total protein in each well was measured and protein concentration was used to normalize the readings.
To elucidate the bioenergetic effects of DMF-dependent increases in mitochondrial copy number and mitochondrial complex expression in human fibroblasts, oxygen consumption rate (OCR) was measured. Human fibroblasts were treated with 0.1% DMSO, 3 μM, 10 μM or 30 μM DMF for 48 hours, and oxygen consumption rate (OCR) was sequentially measured in the presence of oligomycin (complex 5 inhibitor), FCCP (mitochondrial uncoupler), and rotenone/antimycin A (Complex 1/3 inhibitor) [FIG. 2A]. […] Consistent with the idea that DMF increases mitochondrial copy number and mitochondrial complex expression; the effects of DMF are nullified in the presence of oligomycin and rotenone/antimycin A, which inhibits the mitochondrial electron transport chain that is responsible for mitochondrial oxygen consumption.

[7] = MS patients, 3 months DMF treatment

COC(=O)/C=C/C(=O)OC [DMF, dimethyl fumarate]
average induction of all the mitochondrial complexes (subunit mRNA) compared to vehicle ([1]; 10 μM DMF): 1.42 fold | expression of mitochondrial biogenesis marker TFAM compared to vehicle control ([1]; 10 μM DMF): increased | average induction of all the mitochondrial complexes (subunit mRNA) compared to vehicle ([1]; 30 μM DMF): 2.65 fold | expression of mitochondrial biogenesis marker TFAM compared to vehicle control ([1]; 30 μM DMF): increased | expression of complex 5 subunits in response to DMF compared to other complex subunits ([1]; DMF 48 hours): less increased | inducibility of NRF1, mtDNA copy number and mitochondrial complex 2-5 subunit gene expression, siHCAR2+DMF compared to siCTL+DMF (HCAR2): no significant difference | inducibility of complex 1 subunit MT-ND2 by DMF when HCAR2 is knocked down (HCAR2): uninducible | increase in mtDNA copy number (C57BL/6 wild-type mice [2]; cerebellum): 1.29 fold | change in mtDNA copy number (C57BL/6 wild-type mice [2]; heart): no significant change | increase in mtDNA copy number (C57BL/6 wild-type mice [2]; liver): 1.34 fold | increase in mtDNA copy number (C57BL/6 wild-type mice [2]; skeletal muscle): 1.45 fold | increase in mt-Atp6 (complex 5) expression (C57BL/6 wild-type mice [3]; cerebellar tissue): 1.82 fold | increase in mt-Co1 (complex 4) expression (C57BL/6 wild-type mice [3]; cerebellar tissue): 1.92 fold | induction of mitochondrial complexes (C57BL/6 wild-type mice [3]; liver or heart tissues): more minor | increase in mt-Atp6 (complex 5) expression (C57BL/6 wild-type mice [3]; skeletal muscle): 1.77 fold | increase in mt-Co1 (complex 4) expression (C57BL/6 wild-type mice [3]; skeletal muscle): 2.38 fold | increase in mt-Nd2 expression (C57BL/6 wild-type mice [3]; skeletal muscle): 4.68 fold | recovery in average mitochondrial gene expression (mt-ND6, mt-CYB, mt-CO2, mt-ATP6) (MS patients [4]; MS patients following 3 months DMF treatment, relative to healthy individuals): 88% | increase in mt-ATP6 (complex 5) expression normalized to own baseline (MS patients [4]; [7]): 3.74 fold | increase in mt-CO2 (complex 4) expression normalized to own baseline (MS patients [4]; [7]): 2.34 fold | increase in mt-CYB (complex 3) expression normalized to own baseline (MS patients [4]; [7]): 2.87 fold | increase in mt-ND6 (complex 1) expression normalized to own baseline (MS patients [4]; [7]): 3.13 fold | expression of Nrf2, NQO1 and mtDNA copy number, siNrf2+DMF compared to siNrf2 cells (Nrf2; Nrf2 siRNA 48 hours): significantly increases | induction of TFAM and NRF1 in siNrf2+DMF (Nrf2; Nrf2 siRNA 48 hours): no significant induction | mitochondrial complex expression in siNrf2+DMF cells (exception: complex 4) (Nrf2; Nrf2 siRNA 48 hours): general reduction | Nrf2, NQO1, TFAM, NRF1 and mtDNA copy number, siCNT+DMF compared to siCNT (Nrf2; control siRNA 48 hours): significant induction | change in mtDNA copy number compared to vehicle control ([5]; 3 μM DMF): no changes | increase in mtDNA copy number compared to vehicle control ([5]; 10 μM DMF): 1.51 fold | increase in mtDNA copy number compared to vehicle control ([5]; 30 μM DMF): 1.75 fold | mitochondrial DNA copy number compared to healthy control group (MS patients [6]): back to healthy control level | increase in mitochondrial DNA copy number compared to own baseline (MS patients [6]; peripheral blood lymphocytes): 71% | maximal OCR after FCCP injection, relative increase compared to vehicle control (human fibroblasts; 3 μM DMF): 1.20 fold | basal OCR, relative increase compared to vehicle control (human fibroblasts; 10 μM DMF): 1.59 fold | maximal OCR after FCCP injection, relative increase compared to vehicle control (human fibroblasts; 10 μM DMF): 1.35 fold | basal OCR, relative increase compared to vehicle control (human fibroblasts; 30 μM DMF): 1.66 fold | maximal OCR after FCCP injection, relative increase compared to vehicle control (human fibroblasts; 30 μM DMF): 1.47 fold | OCR in the presence of oligomycin and rotenone/antimycin A, DMF groups vs vehicle control (human fibroblasts; 3, 10, 30 μM DMF): not significantly different
